Results as given in patent publication US6338296B1, “Release device for slowly releasing sprout inhibitor into packages of potatoes” (priority 1996, dated 2002).

System: potatoes
Assay: sprout inhibition in a ventilated package of potatoes with a pouch of silica gel carrying 1,4-DMN
Assay type: in vivo, potato
From the text: A package containing ten pounds of potatoes (approximately 5 kg) can be treated according to the instant invention with about 5 grams of silica gel contacted with 2 grams of 1,4-DMN. The substantially saturated silica gel may be placed in a pouch made of cotton fabric having a tight weave. The weave is sufficiently tight that the minute, generally less than 0.5 mm and often less than 0.2 mm, particles are retained in the fabric pouch.
The potatoes, in a plastic bag with numerous ventilation holes, may be allowed to be in a storage room without air conditioning. A single pouch may be placed in the bag with the potatoes.
For example, amounts of DMN from about 0.02 gram to about 1.0 gram per pound of potatoes (˜0.5 kg) may be effectively used. For various reasons, lower amounts are desirable, consistent with effectiveness for the amount of potatoes, volume of voids, length of residence time of the potatoes in the package and range of temperatures to be experienced.

For Cc1ccc(C)c2ccccc12 [1,4-DMN, 1,4-dimethyl naphthalene], the preclusion of sprouting (0.2 grams of 1,4-DMN per one pound (~0.5 kg) of potatoes) was “adequately precludes sprouting” and the “sprouting after 30 days” value (ten pounds of potatoes in ventilated plastic bag, one cotton pouch with about 5 grams silica gel and 2 grams 1,4-DMN, unconditioned store room, 30 days) was “No significant sprouting”.
